{"source": "patent US11584755B2", "about": "(IDEAYA BIOSCIENCES, INC., priority 2017, dated 2023)", "biological_target": "hFEN1 (Homo sapiens (Human), UniProt P39748)", "sequence (P39748 whole entry)": "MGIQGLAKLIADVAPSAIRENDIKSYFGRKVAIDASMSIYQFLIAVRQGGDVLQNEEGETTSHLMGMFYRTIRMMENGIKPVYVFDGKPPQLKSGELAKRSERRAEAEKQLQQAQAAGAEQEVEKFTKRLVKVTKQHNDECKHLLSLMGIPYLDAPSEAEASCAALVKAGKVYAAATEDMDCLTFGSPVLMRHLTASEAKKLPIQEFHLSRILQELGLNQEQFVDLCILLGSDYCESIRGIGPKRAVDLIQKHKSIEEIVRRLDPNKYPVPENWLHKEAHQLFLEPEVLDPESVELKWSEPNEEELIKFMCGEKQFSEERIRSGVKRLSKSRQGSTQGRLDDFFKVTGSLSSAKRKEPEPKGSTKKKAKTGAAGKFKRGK", "test": "Enzymatic IC50 assay, FAM-labeled DNA oligomer substrate, fluorescence intensity (FEN1)", "format": "biochemical", "conditions": "hFEN1 70 pM, substrate 100 nM, reaction time 20 minutes, 23° C.", "method": "FEN1, EXO1 or XPG enzyme was incubated with compound or vehicle (DMSO) and the FAM-labeled DNA oligomer substrate in a microtiter plate. The stop buffer contains EDTA to stop the enzymatic reaction. The plate is read for fluorescence intensity. The high control (DMSO) with high fluorescence intensity represents no inhibition of enzymatic reaction while the low control (10 μM) with low fluorescence intensity represents full inhibition of enzymatic reaction.\n• FEN1 • hFEN1: 70 pM • Substrate: 100 nM • Reaction time: 20 minutes • EXO1 • hEXO1: 6 nM, Isoforml • Substrate: 30 nM • Reaction time: 60 minutes • XPG • hXPG: 100 nM • Substrate: 100 nM • Reaction time: 120 minutes\nAnnealing Buffer: 50 mM Tris-HCl, 50 mM NaCl, 1 mM DTT Assay buffer: 50 mM Tris-HCl pH 8.0, 10 mM MgCl2, 0.01% BSA, 1 mM DTT Stop buffer: 50 mM EDTA in assay buffer Temperature: 23° C. Total volume: 40 μl Controls: • 0% inhibition control: DMSO • 100% inhibition control: 10 μM (final) 5-chloro-3-hydroxy-1,3-dihydroquinazoline-2,4-dione Enzyme Reaction and Detection: • 1. Prepare 25 μM intermediate stock of the substrate by diluting SEQ ID NO:1, SEQ ID NO:2, and SEQ ID NO:3 in annealing buffer, in a PCR tube. • 2. Place the PCR tube on a heat block, heat at 95° C. for 3 minutes, then drop in 0.2° C. increments over 2 minutes, stopping at 25° C. • 3. Remove the tube and let the tube cool at room temperature. • 4. Transfer 10 μL of 3× final concentration test compounds or DMSO to the appropriate wells of a microtiter plate. • 5. Transfer 10 μL of 3× final concentration enzyme in assay buffer or assay buffer alone to the appropriate wells. • 6. Incubate the plate at room temperature for 15 minutes. • 7. Transfer 10 μL of 3× substrate in assay buffer to all the test wells. • 8. Incubate the plate at room temperature for prescribed reaction time. • 9. Centrifuge the plate at 1000 rpm for 1 minute. • 10. Transfer 10 μL of stop buffer to all the test wells. • 11. Centrifuge the plate at 1000 rpm for 1 minute. • 12. Read the plate on a plate reader."}
{"smiles": "CS(=O)(=O)Nc1ccccc1-n1cc(Cn2c(=O)c(O)c(C(=O)O)c3sccc32)cn1", "note": "[Example 108, 6-hydroxy-4-{[1-(2-(methylsulfonamido)phenyl]-1H-pyrazol-4-yl}methyl)-5-oxo-4,5-dihydrothieno[3,2-b]pyridine-7-carboxylic acid]", "values": [{"measurement": "IC50", "result": "250 to 750", "unit": "nM"}]}
{"smiles": "O=C(O)c1c(O)c(=O)n(Cc2cccc(C(F)(F)F)c2)c2ccsc12", "note": "[Example 43, 6-hydroxy-5-oxo-4-(3-(trifluoromethyl)benzyl)-4,5-dihydrothieno[3,2-b]pyridine-7-carboxylic acid]", "values": [{"measurement": "IC50", "result": "250 to 750", "unit": "nM"}]}
{"smiles": "O=C(O)c1c(O)c(=O)n(CC2CCCCC2)c2ccsc12", "note": "[Example 44, 4-(cyclohexylmethyl)-6-hydroxy-5-oxo-4,5-dihydrothieno[3,2-b]pyridine-7-carboxylic acid]", "values": [{"measurement": "IC50", "result": "2250 to 10000", "unit": "nM"}]}
{"smiles": "COc1ccc(-n2cc(Cn3c(=O)c(O)c(C(=O)O)c4sccc43)nn2)cc1", "note": "[Example 25, 6-hydroxy-4-{[1-(4-methoxyphenyl)triazol-4-yl]methyl}-5-oxo-thieno[3,2-b]pyridine-7-carboxylic acid]", "values": [{"measurement": "IC50", "result": "< 200", "unit": "nM"}]}
{"smiles": "Cc1nn(C)cc1Cn1cc(Cn2c(=O)c(O)c(C(=O)O)c3sccc32)cn1", "note": "[Example 134, 4-({1-[(1,3-dimethyl-1H-pyrazol-4-yl)methyl]-1H-pyrazol-4-yl}methyl)-6-hydroxy-5-oxo-4,5-dihydrothieno[3,2-b]pyridine-7-carboxylic acid]", "values": [{"measurement": "IC50", "result": "< 200", "unit": "nM"}]}
{"smiles": "O=C(O)c1c(O)c(=O)n(Cc2ccc(OC(F)F)cc2)c2ccsc12", "note": "[Example 57, 4-(4-(difluoromethoxy)benzyl)-6-hydroxy-5-oxo-4,5-dihydrothieno[3,2-b]pyridine-7-carboxylic acid]", "values": [{"measurement": "IC50", "result": "< 200", "unit": "nM"}]}
{"smiles": "CC(=O)Nc1ccccc1-n1cc(Cn2c(=O)c(O)c(C(=O)O)c3sccc32)cn1", "note": "[Example 109, 4-{[1-(2-acetamidophenyl)-1H-pyrazol-4-yl]methyl}-6-hydroxy-5-oxo-4,5-dihydrothieno[3,2-b]pyridine-7-carboxylic acid]", "values": [{"measurement": "IC50", "result": "750 to 2250", "unit": "nM"}]}
{"smiles": "N#Cc1ccccc1Cn1c(=O)c(O)c(C(=O)O)c2sccc21", "note": "[Example 54, 4-(2-cyanobenzyl)-6-hydroxy-5-oxo-4,5-dihydrothieno[3,2-b]pyridine-7-carboxylic acid]", "values": [{"measurement": "IC50", "result": "2250 to 10000", "unit": "nM"}]}
{"smiles": "CCOC(=O)c1c(O)c(=O)n(Cc2ccc(OC)cc2)c2ccsc12", "note": "[Example 33, ethyl 6-hydroxy-4-(4-methoxybenzyl)-5-oxo-4,5-dihydrothieno[3,2-b]pyridine-7-carboxylate]", "values": [{"measurement": "IC50", "result": "2250 to 10000", "unit": "nM"}]}
{"smiles": "CC(=O)Nc1cc(Cn2c(=O)c(O)c(C(=O)O)c3sccc32)ccc1Cl", "note": "[Example 65, 4-(3-acetamido-4-chlorobenzyl)-6-hydroxy-5-oxo-4,5-dihydrothieno[3,2-b]pyridine-7-carboxylic acid]", "values": [{"measurement": "IC50", "result": "250 to 750", "unit": "nM"}]}
{"smiles": "COc1cccc(Cn2cc(Cn3c(=O)c(O)c(C(=O)O)c4sccc43)nn2)c1", "note": "[Example 150, 6-hydroxy-4-{[1-(3-methoxybenzyl)-1H-1,2,3-triazol-4-yl]methyl}-5-oxo-4,5-dihydrothieno[3,2-b]pyridine-7-carboxylic acid]", "values": [{"measurement": "IC50", "result": "< 200", "unit": "nM"}]}
{"smiles": "Cn1nccc1Cn1cc(Cn2c(=O)c(O)c(C(=O)O)c3sccc32)cn1", "note": "[Example 124, 6-hydroxy-4-({1-[(1-methyl-1H-pyrazol-5-yl)methyl]-1H-pyrazol-4-yl}methyl)-5-oxo-4,5-dihydrothieno[3,2-b]pyridine-7-carboxylic acid]", "values": [{"measurement": "IC50", "result": "< 200", "unit": "nM"}]}
{"smiles": "COc1ccccc1-n1cc(Cn2c(=O)c(O)c(C(=O)O)c3sccc32)cn1", "note": "[Example 106, 6-hydroxy-4-{[1-(2-methoxyphenyl)-1H-pyrazol-4-yl]methyl}-5-oxo-4,5-dihydrothieno[3,2-b]pyridine-7-carboxylic acid]", "values": [{"measurement": "IC50", "result": "< 200", "unit": "nM"}]}
{"smiles": "O=C(O)c1c(O)c(=O)n(Cc2ccccn2)c2ccsc12", "note": "[Example 38, 6-hydroxy-5-oxo-4-(pyridin-2-ylmethyl)-4,5-dihydrothieno[3,2-b]pyridine-7-carboxylic acid]", "values": [{"measurement": "IC50", "result": "2250 to 10000", "unit": "nM"}]}
{"smiles": "O=C(O)c1c(O)c(=O)n(Cc2ccncc2)c2ccsc12", "note": "[Example 47, 6-hydroxy-5-oxo-4-(pyridin-4-ylmethyl)-4,5-dihydrothieno[3,2-b]pyridine-7-carboxylic acid]", "values": [{"measurement": "IC50", "result": "2250 to 10000", "unit": "nM"}]}
